Measured values published in PMC10847848, “Production of recombinant intact and N-terminal truncated lipoxygenase isozyme III expressed in Saccharomyces cerevisiae and its influence on glutenin polypeptides” (Food Chemistry: Molecular Sciences, 2024).

Tests used:
recombinant Mini-LOX III = biological target: T1, recombinant Mini-LOX III (Triticum aestivum, UniProt F1DTB8); experiment: conjugated diene absorbance at […] nm, Lineweaver-Burk; assay type: biochemical; conditions: crude yeast extract in 50 mM phosphate pH 7.6 (extraction buffer); methods print linoleic acid range as 10 mM to 70 mM, conflicting with Km in µM
T1 construct: gene LOX3; cut placed by alignment to soybean Mini-LOX STPIEFHSFQ; pGK423, S. cerevisiae BY4741; crude soluble extract
T1 sequence (F1DTB8 343-878 limits assumed): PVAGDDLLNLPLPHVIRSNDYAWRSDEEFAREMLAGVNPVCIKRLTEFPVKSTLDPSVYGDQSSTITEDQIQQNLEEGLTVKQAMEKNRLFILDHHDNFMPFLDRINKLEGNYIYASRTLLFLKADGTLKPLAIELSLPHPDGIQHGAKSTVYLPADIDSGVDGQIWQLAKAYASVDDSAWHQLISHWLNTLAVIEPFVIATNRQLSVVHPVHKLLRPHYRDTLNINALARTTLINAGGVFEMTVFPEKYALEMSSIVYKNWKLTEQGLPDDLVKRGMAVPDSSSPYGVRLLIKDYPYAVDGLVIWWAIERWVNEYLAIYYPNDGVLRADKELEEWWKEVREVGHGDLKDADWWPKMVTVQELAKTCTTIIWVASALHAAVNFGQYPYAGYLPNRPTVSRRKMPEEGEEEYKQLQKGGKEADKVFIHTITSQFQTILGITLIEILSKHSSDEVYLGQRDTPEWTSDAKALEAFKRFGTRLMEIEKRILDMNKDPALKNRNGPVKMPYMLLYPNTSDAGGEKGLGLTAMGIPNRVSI

recombinant LOX III = biological target: T2, recombinant LOX III (Triticum aestivum, UniProt F1DTB8); experiment: as above; assay type: biochemical; conditions: crude yeast extract in 50 mM phosphate pH 7.6 (extraction buffer); methods print linoleic acid range as 10 mM to 70 mM, conflicting with Km in µM
T2 construct: gene LOX3; full length, 878 residues, 95 kDa; codon-optimised; LOX III-2A-mClover3 in pGK423, S. cerevisiae BY4741; crude soluble extract
T2 sequence (F1DTB8 1-878): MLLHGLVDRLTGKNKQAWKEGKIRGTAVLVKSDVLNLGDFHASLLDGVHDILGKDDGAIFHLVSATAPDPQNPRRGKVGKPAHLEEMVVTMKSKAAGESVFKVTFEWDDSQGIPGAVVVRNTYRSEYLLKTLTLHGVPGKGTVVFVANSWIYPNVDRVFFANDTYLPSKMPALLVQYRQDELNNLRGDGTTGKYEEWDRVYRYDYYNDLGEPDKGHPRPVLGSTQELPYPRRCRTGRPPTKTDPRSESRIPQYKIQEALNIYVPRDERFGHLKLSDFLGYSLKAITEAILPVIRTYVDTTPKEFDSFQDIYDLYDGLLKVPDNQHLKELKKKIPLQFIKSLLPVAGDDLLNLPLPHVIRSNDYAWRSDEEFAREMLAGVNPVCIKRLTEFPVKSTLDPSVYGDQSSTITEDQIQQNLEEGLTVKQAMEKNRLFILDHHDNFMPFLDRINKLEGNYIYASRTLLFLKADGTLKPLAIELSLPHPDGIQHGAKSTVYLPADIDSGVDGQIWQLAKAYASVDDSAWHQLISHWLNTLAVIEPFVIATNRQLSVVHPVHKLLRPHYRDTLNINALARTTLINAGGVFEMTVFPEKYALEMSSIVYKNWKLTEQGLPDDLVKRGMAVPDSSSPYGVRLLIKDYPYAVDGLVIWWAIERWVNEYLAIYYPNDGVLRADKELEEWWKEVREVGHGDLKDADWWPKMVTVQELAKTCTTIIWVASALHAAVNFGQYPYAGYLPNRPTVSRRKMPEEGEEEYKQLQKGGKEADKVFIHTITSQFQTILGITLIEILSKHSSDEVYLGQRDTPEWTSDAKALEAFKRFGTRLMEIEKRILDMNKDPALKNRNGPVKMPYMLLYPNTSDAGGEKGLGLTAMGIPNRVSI

In the case of `CCCCC/C=C\C/C=C\CCCCCCCC(=O)O` [linoleic acid], the Km (recombinant Mini-LOX III) is reported as 21.3 µM and the Km (recombinant LOX III) is reported as 25.7 µM.
